Source: patent publication US20040248887A1, “Inhibitors of cathepsin S” (IRM LLC, priority 2003, published 2004)

Target: Cathepsin S (Homo sapiens, UniProt P25774)
Test: Cathepsin S inhibition, fluorogenic peptide substrate kinetic assay
Assay type: biochemical
Conditions: Table II; Cathepsin S inhibition constant, pH5.5; read-out: Ki Cat. S
Method in brief: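 Ki values derive from apparent constants fitted to progress curves, corrected for competition with substrate via [S] and Km. Kinetics were monitored at 380 nm excitation/450 nm emission, after substrate addition (Ac-HPVK-ACC, 50 μM final) to start the reaction.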

Sequence of Cathepsin S (P25774 115-331, species assumed): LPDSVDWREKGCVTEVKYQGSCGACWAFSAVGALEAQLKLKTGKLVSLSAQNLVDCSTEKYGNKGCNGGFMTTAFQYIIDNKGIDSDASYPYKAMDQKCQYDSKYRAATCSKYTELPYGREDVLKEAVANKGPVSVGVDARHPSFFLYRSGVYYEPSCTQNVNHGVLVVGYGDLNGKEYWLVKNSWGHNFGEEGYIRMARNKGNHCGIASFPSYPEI

Ki | Molecule
< 100 nM | Cc1cccc(C(=O)N[C@@H](CC(C)(C)C)C(=O)NCCN2CCc3cc(F)ccc32)c1 [Compound 203, N-((S)-1-(2-(5-fluoroindolin-1-yl)ethylcarbamoyl)-3,3-dimethylbutyl)-3-methylbenzamide]
< 1000 nM | C[C@@H](CNc1ccc(C(=N)N)cc1)NC(=O)C(NC(=O)c1ccc(OCc2ccccc2)cc1)c1ccc(Cl)cc1Cl (mixture of isomers) [Compound 175, 4-Benzyloxy-N-(R,S)-{[2-(4-amidinophenylamino)-1-(S)-methyl-ethylcarbamoyl]-(2,4-dichloro-phenyl)-methyl}-benzamide]
< 1000 nM | O=C(N[C@@H](CC1CCCCC1)C(=O)NCCN1CCc2cc(F)ccc21)C1CCN(C(=O)c2ccccc2)CC1 [Compound 5, 1-Benzoyl-piperidine-4-carboxylic acid (S)-{2-cyclohexyl-1-[2-(5-fluoro-2,3-dihydro-indol-1-yl)-ethylcarbamoyl]-ethyl}-amide]
< 1000 nM | Cc1cccc(C(=O)N[C@@H](CCC2CCCCC2)C(=O)NCCN2CCc3cc(F)ccc32)c1 [Compound 204, N-((S)-1-(2-(5-fluoroindolin-1-yl)ethylcarbamoyl)-3-cyclohexylpropyl)-3-methylbenzamide]
< 1000 nM | O=C(NCCN1CCc2cc(F)ccc21)[C@H](CC1CCCCC1)NS(=O)(=O)c1ccsc1 [Compound 248, (S)-3-Cyclohexyl-N-[2-(5-fluoro-2,3-dihydro-indol-1-yl)-ethyl]-2-(thiophene-3-sulfonylamino)-propionamide]
< 100 nM | C[C@@H](CNc1cccc(C(=O)N(C)C)c1)NC(=O)[C@H](CC1CCCCC1)NC(=O)c1ccc(-c2cccc(F)c2)o1 [Compound 120, 5-(3-Fluoro-phenyl)-furan-2-carboxylic acid {2-cyclohexyl-1-(S)-[2-(3-dimethylcarbamoyl-phenylamino)-1-(S)-methyl-ethylcarbamoyl]-ethyl}-amide]
< 100 nM | O=C(C[C@@H](CN1CCc2cc(F)ccc21)NC(=O)[C@H](CC1CCCCC1)NC(=O)OCc1ccccc1)OCc1ccccc1 [Compound 168, 3-(S)-(2-(S)-Benzyloxycarbonylamino-3-cyclohexyl-propionylamino)-4-(5-fluoro-2,3-dihydro-indol-1-yl)-butyric acid benzyl ester]
< 100 nM | C[C@@H](CNc1cccc(OC(F)(F)F)c1)NC(=O)[C@H](CC1CCCCC1)NC(=O)c1ccc(-c2cccc(F)c2)o1 [Compound 111, 5-(3-Fluoro-phenyl)-furan-2-carboxylic acid {2-cyclohexyl-1-(S)-[1-(S)-methyl-2-(3-trifluoromethoxy-phenylamino)-ethylcarbamoyl]-ethyl}-amide]
< 1000 nM | C[C@@H](CNc1ccc(S(N)(=O)=O)cc1)NC(=O)[C@H](CC1CCCCC1)NC(=O)c1ccc(-c2cccc(F)c2)o1 [Compound 138, 5-(3-Fluoro-phenyl)-furan-2-carboxylic acid {2-cyclohexyl-1-(S)-[1-(S)-methyl-2-(4-sulfamoyl-phenylamino)-ethylcarbamoyl]-ethyl}-amide]
< 1000 nM | O=C(NCCN1CCc2cc(F)ccc21)[C@H](CC1CCCCC1)NS(=O)(=O)c1ccc(C(F)(F)F)cc1 [Compound 229, (S)-3-Cyclohexyl-N-[2-(5-fluoro-2,3-dihydro-indol-1-yl)-ethyl]-2-(4-trifluoromethyl-benzenesulfonylamino)-propionamide]
< 100 nM | COCC(=O)N[C@@H](CC1CCCCC1)C(=O)N[C@@H](C)CNc1ccc(OC(F)(F)F)cc1 [Compound 124, 3-Cyclohexyl-2-(S)-(2-methoxy-acetylamino)-N-[1-(S)-methyl-2-(4-trifluoromethoxy-phenylamino)-ethyl]-propionamide]
< 100 nM | C[C@@H](CN1CC(C)(C)c2cc(F)ccc21)NC(=O)[C@H](CC1CCCCC1)NC(=O)O[C@@H]1CCOC1 [Compound 216, {2-Cyclohexyl-1-(S)-[2-(5-fluoro-3,3-dimethyl-2,3-dihydro-indol-1-yl)-1-(S)-methyl-ethylcarbamoyl]-ethyl}-carbamic acid (R)-tetrahydrofaran-3-yl ester]
< 100 nM | O=C(N[C@@H](CC1CCCCC1)C(=O)N[C@@H](COCc1ccccc1)CN1CCc2cc(F)ccc21)c1ccc(-c2cccc(C(F)(F)F)c2)o1 [Compound 152, 5-(3-Trifluoromethyl-phenyl)-furan-2-carboxylic acid {1-(S)-[1-(R)-benzyloxymethyl-2-(5-fluoro-2,3-dihydro-indol-1-yl)-ethylcarbamoyl]-2-cyclohexyl-ethyl}-amide]
< 100 nM | C[C@@H](CNc1ccc(OC(F)(F)F)cc1)NC(=O)[C@H](CC1CCCC1)NC(=O)O[C@H]1CCOC1 [Compound 192, (S,S)-{2-Cyclopentyl-1-[1-methyl-2-(4-trifluoromethoxy-phenylamino)-ethylcarbamoyl]-ethyl}-carbamic acid tetrahydrofuran-3-(S)-yl ester]
< 100 nM | C[C@@H](CNc1cccc(Cl)c1)NC(=O)[C@H](CC1CCCCC1)NC(=O)c1ccc(-c2cccc(F)c2)o1 [Compound 94, 5-(3-Fluoro-phenyl)-fuiran-2-carboxylic acid {1-(S)-[2-(3-chloro-phenylamino)-1-(S)-methyl-ethylcarbamoyl]-2-cyclohexyl-ethyl}-amide]
< 10000 nM | COc1cccc(C(=O)N[C@@H](CCC2CCCCC2)C(=O)NCCN2CCc3c(OC)cccc32)c1 [Compound 15, (S)-N-{3-Cyclohexyl-1-[2-(4-methoxy-2,3-dihydro-indol-1-yl)-ethylcarbamoyl]-propyl}-3-methoxy-benzamide]
< 1000 nM | COc1ccc(CC(=O)N[C@@H](CC2CCCCC2)C(=O)NCCN2CCc3cc(F)ccc32)cc1 [Compound 6, (S)-3-Cyclohexyl-N-[2-(5-fluoro-2,3-dihydro-indol-1-yl)-ethyl]-2-[2-(4-methoxy-phenyl)-acetylamino]-propionamide]
< 100 nM | O=C(NCCN1CCc2cc(F)ccc21)[C@H](CC1CCCCC1)NS(=O)(=O)c1ccc(Oc2ccccc2)cc1 [Compound 226, (S)-3-Cyclohexyl-N-[2-(5-fluoro-2,3-dihydro-indol-1-yl)-ethyl]-2-(4-phenoxy-benzenesulfonylamino)-propionamide]
< 100 nM | CC(=O)Nc1nc(C)c(S(=O)(=O)N[C@@H](CC2CCCCC2)C(=O)NCCN2CCc3cc(F)ccc32)s1 [Compound 257, (S)-2-(2-Acetylamino-4-methyl-thiazole-5-sulfonylamino)-3-cyclohexyl-N-[2-(5-fluoro-2,3-dihydro-indol-1-yl)-ethyl]-propionamide]
< 100 nM | COc1ccc(NC[C@H](C)NC(=O)[C@H](CC(C)(C)C)NC(=O)c2ccc(-c3cccc(F)c3)o2)cc1 [Compound 132, 5-(3-Fluoro-phenyl)-furan-2-carboxylic acid {1-(S)-[2-(4-methoxy-phenylamino)-1-(S)-methyl-ethylcarbamoyl]-3,3-dimethyl-butyl}-amide]
< 10000 nM | COc1cccc(C(=O)N[C@@H](CCC2CCCCC2)C(=O)NCCN2CCc3cc(C#N)ccc32)c1 [Compound 12, (S)-N-{3-Cyclohexyl-1-[2-(5-cyano-2,3-dihydro-indol-1-yl)-ethylcarbamoyl]-propyl}-3-methoxy-benzamide]
< 1000 nM | O=C(N[C@H](C(=O)N[C@H](CO)CN1CCc2cc(F)ccc21)c1ccc(Cl)cc1Cl)c1ccc(F)c(F)c1 [Compound 214, (S,S)-N-((3-(5-fluoroindolin-1-yl)-1-hydroxypropan-2-ylcarbamoyl)(2,4-dichlorophenyl)methyl)-3,4-difluorobenzamide]
< 100 nM | C[C@@H](CNc1ccc(OC(F)(F)F)cc1)NC(=O)[C@H](CC1CCCCC1)NC(=O)C1CCOCC1 [Compound 135, Tetrahydropyran-4-carboxylic acid {2-cyclohexyl-1-(S)-[1-(S)-methyl-2-(4-trifluoromethoxy-phenylamino)-ethylcarbamoyl]-ethyl}-amide]
< 100 nM | Cc1noc(C)c1S(=O)(=O)N[C@@H](CC1CCCCC1)C(=O)N[C@@H](C)CN1CCc2cc(F)ccc21 [Compound 263, (S,S)-3-Cyclohexyl-2-(3,5-dimethyl-isoxazole-4-sulfonylamino)-N-[2-(5-fluoro-2,3-dihydro-indol-1-yl)-1-methyl-ethyl]-propionamide]
< 1000 nM | O=C(N[C@@H](CC1CCCCC1)C(=O)NCCN1CCc2cc(F)ccc21)C1CC(=O)N(Cc2ccccc2)C1 (stereo partly drawn) [Compound 65, 1-Benzyl-5-oxo-pyrrolidine-3-carboxylic acid (S)-{2-cyclohexyl-1-[2-(5-fluoro-2,3-dihydro-indol-1-yl)-ethylcarbamoyl]-ethyl}-amide]
< 100 nM | Cc1nc(-c2ccc(S(=O)(=O)N[C@@H](CC3CCCCC3)C(=O)NCCN3CCc4cc(F)ccc43)s2)cs1 [Compound 237, (S)-3-Cyclohexyl-N-[2-(5-fluoro-2,3-dihydro-indol-1-yl)-ethyl]-2-[5-(2-methyl-thiazol-4-yl)-thiophene-2-sulfonylamino]-propionamide]
< 1000 nM | O=C(NCCN1CCc2cc(F)ccc21)[C@H](CC1CCCCC1)NS(=O)(=O)c1ccc(OC(F)(F)F)cc1 [Compound 230, (S)-3-Cyclohexyl-N-[2-(5-fluoro-2,3-dihydro-indol-1-yl)-ethyl]-2-(4-trifluoromethoxy-benzenesulfonylamino)-propionamide]
< 100 nM | C[C@@H](CNc1cccc(S(C)(=O)=O)c1)NC(=O)[C@H](CC(C)(C)C)NC(=O)c1ccc(-c2cccc(F)c2)o1 [Compound 130, 5-(3-Fluoro-phenyl)-furan-2-carboxylic acid {1-(S)-[2-(3-methanesulfonyl-phenylamino)-1-(S)-methyl-ethylcarbamoyl]-3,3-dimethyl-butyl}-amide]
< 100 nM | COc1ccc(NC[C@H](COCc2ccccc2)NC(=O)[C@H](CC(C)C)NC(=O)c2cccc(C)c2)cc1 [Compound 35, N-{1-(S)-[1-(R)-Benzyloxymethyl-2-(4-methoxy-phenylamino)-ethylcarbamoyl]-3-methyl-butyl}-3-methyl-benzamide]

Molecule | Ki
(S)-3-Cyclohexyl-N-[2-(5-fluoro-2,3-dihydro-indol-1-yl)-ethyl]-2-(5-isoxazol-3-yl-thiophene-2-sulfonylamino)-propionamide [Compound 223] | < 1000 nM
